According to patent US6855730B2, “3-methylidenyl-2-indolinone modulators of protein kinase” (Sugen, Inc., priority 1998, dated 2005):
pIC50: −log10 of the molar value.

What was measured:
Type in all cases: cell-based
A431 cells = experiment: A431 growth assay (2% FBS); settings: Homo sapiens, A-431, read-out: A431 growth (2% FBS) IC50
[1] = target: T1, chimeric receptor having the extra-cellular domain of EGF-R and the intra-cellular domain of Her2 (Homo sapiens, UniProt P04626); experiment: EGF-induced Her2-driven BrdU incorporation; settings: read-out: BrdU HER 2 driven IC50
T1 construct: fused on or other part: the same chimera
Description: The cellular/catalytic assays described herein are performed in an ELISA format. The general procedure is as follows: a compound is introduced to cells expressing the test kinase, either naturally or recombinantly, for a selected period of time after which, if the test kinase is a receptor, a ligand known to activate the receptor is added. The cells are lysed and the lysate is transferred to the wells of an ELISA plate previously coated with a specific antibody recognizing the substrate of the enzymatic phosphorylation reaction. Non-substrate components of the cell lysate are washed away and the amount of phosphorylation on the substrate is detected with an antibody specifically recognizing phosphotyrosine compared with control cells that were not contacted with a test compound. The cellular/biologic assays described herein measure the amount of DNA made in response to activation of a test kinase, which is a general measure of a proliferative response. The general procedure for this assay is as follows: a compound is introduced to cells expressing the test kinase, either naturally or recombinantly, for a selected period of time after which, if the test kinase is a receptor, a ligand known to activate the receptor is added. After incubation at least overnight, a DNA labeling reagent such as Bromodeoxyuridine (BrdU) or 3H-thymidine is added. The amount of labeled DNA is detected with either an anti-BrdU antibody or by measuring radioactivity and is compared to control cells not contacted with a test compound.
EGF-Induced Her2-Driven BrdU Incorporation
Protocol • (1) Cells-are seeded at 8000 cells/well in DMEM, 10% CS, 2mM Gln in a 96-well plate. Cells are incubated overnight at 37° C. in 5% CO2. • (2) After 24 hours, the cells are washed with PBS, and then are serum starved in serum free medium (0% CS DMEM with 0.1% BSA) for 24 hours. • (3) On day 3, ligand (EGF=2 nM, prepared in DMEM with 0.1% BSA) and test compounds are added to the cells simultaneously. The negative control wells receive serum free DMEM with 0.1% BSA only, the positive control cells receive the ligand (EGF) but no test compound. Test compounds are prepared in serum free DMEM with ligand in a 96 well plate, and serially diluted for 7 test concentrations. • (4) After 20 hours of ligand activation, diluted BrdU labeling reagent (1:100 in DMEM, 0.1% BSA) is added and the cells are incubated with BrdU (final concentration=10 μM) for 1.5 hours. • (5) After incubation with labeling reagent, the medium is removed by decanting and tapping the inverted plate on a paper towel. FixDenat solution is added (50 μl/well) and the plates are incubated at room temperature for 45 minutes on a plate shaker. • (6) The FixDenat solution is thoroughly removed by decanting and tapping the inverted plate on a paper towel. Milk is added (5% dehydrated milk in PBS, 200 μ/well) as a blocking solution and the plate is incubated for 30 minutes at room temperature on a plate shaker. • (7) The blocking solution is removed by decanting and the wells are washed once with PBS. Anti-BrdU-POD solution (1:100 dilution in PBS, 1% BSA) is added (100 μl/well) and the plate is incubated for 90 minutes at room temperature on a plate shaker. • (8) The antibody conjugate is thoroughly removed by decanting and rinsing the wells 5 times with PBS, and the plate is dried by inverting and tapping on a paper towel. • (9) TMB substrate solution is added (100 μl/well) and incubated for 20 minutes at room temperature on a plate shaker until color development is sufficient for photometric detection. • (10) The absorbance of the samples are measured at 410 nm (in “dual wavelength” mode with a filter reading at 490 nm, as a reference wavelength) on a Dynatech ELISA plate reader.

SKOV3 cells = experiment: SKOV3 growth assay (2% FBS); settings: Homo sapiens, SK-OV-3, read-out: SKOV3 growth (2% FBS) IC50

T1 sequence (P04626 676-1255 limits assumed, change not shown): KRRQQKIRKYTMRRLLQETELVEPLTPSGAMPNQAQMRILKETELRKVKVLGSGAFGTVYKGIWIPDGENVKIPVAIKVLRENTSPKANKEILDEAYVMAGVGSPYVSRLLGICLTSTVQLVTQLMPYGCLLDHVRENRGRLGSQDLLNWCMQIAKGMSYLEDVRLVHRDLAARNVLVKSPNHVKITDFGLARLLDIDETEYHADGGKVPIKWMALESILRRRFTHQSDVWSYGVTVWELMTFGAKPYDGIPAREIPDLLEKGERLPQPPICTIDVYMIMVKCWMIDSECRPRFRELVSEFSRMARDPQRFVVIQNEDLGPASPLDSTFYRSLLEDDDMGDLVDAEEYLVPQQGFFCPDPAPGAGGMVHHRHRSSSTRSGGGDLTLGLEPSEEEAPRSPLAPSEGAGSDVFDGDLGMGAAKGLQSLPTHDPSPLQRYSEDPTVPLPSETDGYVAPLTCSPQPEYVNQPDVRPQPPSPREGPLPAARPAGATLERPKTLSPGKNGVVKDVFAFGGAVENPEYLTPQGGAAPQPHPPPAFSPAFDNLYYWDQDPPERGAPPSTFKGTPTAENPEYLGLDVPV

COc1cc(C)c(C=C2C(=O)Nc3ccc(Cl)cc32)cc1C(C)C [Example 9, 5-Chloro-3-(5-isopropyl-4-methoxy-2-methylbenzylidene)-1,3-dihydroindol-2-one] was tested, and the pIC50 (A431 cells) was 4.76, the pIC50 [1] was 5.35 and the pIC50 (SKOV3 cells) was 4.84.
COc1ccc(/C=C2/C(=O)Nc3ccc(Br)cc32)cc1-c1ccccc1 [Example 13, 5-Bromo-3-(6-methoxybiphenyl-3-ylmethylene)-1,3-dihydroindol-2-one] was tested, and the pIC50 (A431 cells) was 5.05, the pIC50 [1] was 5.05 and the pIC50 (SKOV3 cells) was 4.67.
Compound COc1ccc(/C=C2/C(=O)Nc3ccccc32)cc1-c1ccsc1 [Example 35, 3-(4-Methoxy-3-thiophen-3-ylbenzylidene)-1,3-dihydroindol-2-one] has a pIC50 (A431 cells) of 4.87, a pIC50 [1] of 4.86 and a pIC50 (SKOV3 cells) of 4.79.
COc1ccc(/C=C2/C(=O)Nc3ccccc32)cc1C1CCCCC1 [Example 12, 3-(3-Cyclohexyl-4-methoxybenzylidene)-1,3-dihydroindol-2-one] showed a pIC50 (A431 cells) of 5.10, a pIC50 [1] of 4.50 and a pIC50 (SKOV3 cells) of 5.00.
COc1ccc(/C=C2/C(=O)Nc3ccc(CCN4CCOCC4)cc32)cc1-c1ccsc1 [Example 26, 3-(4-Methoxy-3-thiophen-3-ylbenzylidene)-5-(2-morpholin-4-yl-ethyl)-1,3-dihydroindol-2-one] was tested, and the pIC50 (A431 cells) was 5.52, the pIC50 [1] was less than 4.30 and the pIC50 (SKOV3 cells) was 5.27.
In the case of CC(=O)Nc1ccc2c(c1)NC(=O)/C2=C\c1ccc2c(c1)CCC(C)(C)O2 [Example 33, N-[3-(2,2-Dimethylchroman-6-ylmethylene)-2-oxo-2,3-dihydro-1H-indol-6-yl]-acetamide], the pIC50 (A431 cells) was 5.17 and the pIC50 (SKOV3 cells) was 4.99.
With COc1c(C)cc(/C=C2/C(=O)Nc3ccc(Cl)cc32)cc1C [Example 21, 5-Chloro-3-(4-methoxy-3,5-dimethylbenzylidene)-1,3-dihydroindol-2-one] the pIC50 (A431 cells) was 4.82, the pIC50 [1] was 5.18 and the pIC50 (SKOV3 cells) was 4.89.
COc1c(C(C)C)cc(/C=C2/C(=O)Nc3ccc(C)cc32)cc1C(C)C [Example 19, 3-(3,5-Diisopropyl-4-methoxybenzylidene)-5-methyl-1,3-dihydroindol-2-one] was tested, and the pIC50 (A431 cells) was 5.37, the pIC50 [1] was 5.48 and the pIC50 (SKOV3 cells) was 5.23.
For COc1cc(C)c(C=C2C(=O)Nc3cc(NC(C)=O)ccc32)cc1C(C)C [Example 27, N-[3-(5-Isopropyl-4-methoxy-2-methyl-benzylidene)-2-oxo-2,3-dihydro-1H-indol-6-yl]-acetamide], the pIC50 (A431 cells) was 5.19, the pIC50 [1] was 4.63 and the pIC50 (SKOV3 cells) was 5.29.
In the case of COc1c(C(C)C)cc(/C=C2/C(=O)Nc3cc(O)ccc32)cc1C(C)C [Example 4, 3-(3,5-Diisopropyl-4-methoxybenzylidene)-6-hydroxy-1,3-dihydroindol-2-one], the pIC50 (A431 cells) was 5.29, the pIC50 [1] was 5.36 and the pIC50 (SKOV3 cells) was 5.15.
In the case of CC1(C)CCc2cc(/C=C3/C(=O)Nc4ccc(F)cc43)ccc2O1 [Example 23, 3-(2,2-Dimethylchroman-6-ylmethylene)-5-fluoro-1,3-dihydroindol-2-one], the pIC50 (A431 cells) was 4.84, the pIC50 [1] was 4.57 and the pIC50 (SKOV3 cells) was 4.75.
Work on COc1ccc(/C=C2/C(=O)Nc3cc(NC(C)=O)ccc32)cc1-c1ccsc1 [Example 18, N-[3-(4-Methoxy-3-thiophene-3-ylbenzylidene)-2-oxo-2,3-dihydro-1H-indol-6-yl]-acetamide] yielded a pIC50 (A431 cells) of 6.22, a pIC50 [1] of less than 4.30 and a pIC50 (SKOV3 cells) of 6.00.
COc1ccc(/C=C2/C(=O)Nc3ccc(F)cc32)cc1C1CCCC1 [Example 11, 3-(3-Cyclopentyl-4-methoxybenzylidene)-5-fluoro-1,3-dihydroindol-2-one] showed a pIC50 (A431 cells) of 4.90, a pIC50 [1] of 5.03 and a pIC50 (SKOV3 cells) of 4.82.
CC(C)c1cc(/C=C2/C(=O)Nc3ccc(Cl)cc32)cc(C(C)C)c1OCCN1CCOCC1 [Example 24, 5-chloro-3-[3,5-diisopropyl-4-(2-morpholin-4-ylethoxy)-benzylidene]-1,3-dihydroindol-2-one] gave a pIC50 (A431 cells) of 5.35, a pIC50 [1] of 5.15 and a pIC50 (SKOV3 cells) of 5.19.
COc1cc(C)c(/C=C2/C(=O)Nc3ncccc32)cc1C(C)C [Example 45, 3-(5-Isopropyl-4-methoxy-2-methylbenzylidene)-1,3-dihydro-pyrrolo[2,3-b]pyridin-2-one] showed a pIC50 (A431 cells) of 5.49 and a pIC50 [1] of less than 4.30.
COc1c(C(C)C)cc(/C=C2/C(=O)Nc3ccc(N)cc32)cc1C(C)C [Example 20, 5-Amino-3-(3,5-diisopropyl-4-methoxy-benzylidene)-1,3-dihydroindol-2-one] showed a pIC50 (A431 cells) of 4.53, a pIC50 [1] of 4.80 and a pIC50 (SKOV3 cells) of 4.45.
In the case of COc1cc(/C=C2/C(=O)Nc3ccccc32)c(-c2cccs2)cc1OC [Example 39, 3-(4,5-Dimethoxy-2-thiophen-2-ylbenzylidene)-1,3-dihydroindol-2-one], the pIC50 (A431 cells) was 5.04, the pIC50 [1] was 5.27 and the pIC50 (SKOV3 cells) was 5.02.
COc1cc(C)c(C=C2C(=O)Nc3ccccc32)cc1C(C)C [Example 8, 3-(5-Isopropyl-4-methoxy-2-methylbenzylidene)-1,3-dihydroindol-2-one] gave a pIC50 (A431 cells) of 6.02, a pIC50 [1] of 4.48 and a pIC50 (SKOV3 cells) of 6.02.
CC(=O)Nc1ccc2c(c1)NC(=O)/C2=C/c1ccc(OCCN2CCOCC2)c(-c2ccsc2)c1 [Example 50, N-{3-[4-(2-Morpholin-4-ylethoxy)-3-thiophen-3-ylbenzylidene]-2-oxo-2,3-dihydro-1H-indol-6-yl}-acetamide] was tested, and the pIC50 [1] was 4.51.
Compound COc1c(C(C)C)cc(/C=C2/C(=O)Nc3cc(NC(C)=O)ccc32)cc1C(C)C [Example 3, N-[3-(3,5-Diisopropyl-4-methoxybenzylidene)-2-oxo-2,3-dihydro-1H-indol-6-yl]-acetamide] has a pIC50 (A431 cells) of 5.66, a pIC50 [1] of 5.04 and a pIC50 (SKOV3 cells) of 5.59.
Work on CC(=O)Nc1ccc2c(c1)NC(=O)/C2=C/c1ccc(OCCN2CCOCC2)c(C2CCCCC2)c1 [Example 16, N-{3-[3-Cyclohexyl-4-(2-morpholin-4-ylethoxy)-benzylidene]-2-oxo-2,3-dihydro-1H-indol-6-yl}-acetamide] yielded a pIC50 (A431 cells) of 5.39, a pIC50 [1] of 5.38 and a pIC50 (SKOV3 cells) of 5.23.
CC1(C)CCc2cc(/C=C3/C(=O)Nc4ccc(Cl)cc43)ccc2O1 [Example 15, 5-Chloro-3-(2,2-dimethyl-chroman-6-ylmethylene)-1,3-dihydroindol-2-one] was tested, and the pIC50 (A431 cells) was 5.32, the pIC50 [1] was 5.36 and the pIC50 (SKOV3 cells) was 5.15.
With COc1ccc2c(c1)/C(=C\c1cc(C(C)C)c(OC)c(C(C)C)c1)C(=O)N2 [Example 17, 3-(3,5-Diisopropyl-4-methoxybenzylidene)-5-methoxy-1,3-dihydroindol-2-one] the pIC50 (A431 cells) was 5.37, the pIC50 [1] was 5.26 and the pIC50 (SKOV3 cells) was 5.21.
Work on COc1cccc(-c2cc(OC)c(OC)cc2/C=C2/C(=O)Nc3ccc(Cl)cc32)c1 [Example 61, 5-Chloro-3-(4,5-3′-Trimethoxybiphenyl-2-ylmethylene)-1,3-dihydroindol-2-one] yielded a pIC50 (A431 cells) of less than 4.60, a pIC50 [1] of less than 4.30 and a pIC50 (SKOV3 cells) of less than 4.60.
In the case of COc1c(C(C)C)cc(/C=C2/C(=O)Nc3ccc(C(C)=O)cc32)cc1C(C)C [Example 5, 5-Acetyl-3-(3,5-diisopropyl-4-methoxybenzylidene)-1,3dihydroindol-2-one], the pIC50 (A431 cells) was 5.37, the pIC50 [1] was 4.98 and the pIC50 (SKOV3 cells) was 5.27.
COc1c(C)cc(/C=C2/C(=O)Nc3ncccc32)cc1C [Example 56, 3-(4-Methoxy-3,5-dimethylbenzylidene)-1,3-dihydropyrrolo[2,3-b]pyridin-2-one] was tested, and the pIC50 (SKOV3 cells) was less than 4.70.
Compound COc1ccc(/C=C2/C(=O)Nc3ccc(Cl)cc32)cc1C1CCCCC1 [Example 51, 5-Chloro-3-(3-cyclohexyl-4-methoxybenzylidene)-1,3-dihydroindol-2-one] has a pIC50 (SKOV3 cells) of 4.84.
